Source: patent US9309201B2, “Process for preparating ivabradine hydrochloride form IV and methods of treatment of disease using ivabradine hydrochloride form IV” (URQUIMA, S.A., priority 2011, dated 2016)
Structures can show the parent of a compound that is named as a salt.

Test: Check for transformation of crystalline Form IV after tablet manufacture
Format: physicochemical
Procedure: All the components, with the exception of magnesium stearate and silica colloidal anhydrous, were mixed. Finally, silica colloidal anhydrous and magnesium stearate were added and mixed. The blend was compressed in an excentric tabletting machine.
All the components with the exception of magnesium stearate and silica colloidal anhydrous were mixed and granulated using ethanol as a granulating solvent. Then a wet calibration of the granules was performed. The obtained granules were dried followed by a dry calibration of the granules. Thereafter, silica colloidal anhydrous and magnesium stearate were added and mixed. The lubricated granulate was compressed in an eccentric tabletting machine.
Finally, tablets were coated using conventional coating agents until a weight increase of approximately 3%.

transformation of the crystalline Form IV in tablets (Example 26 tablets, blend compressed directly in an excentric tabletting machine): absence of any transformation
transformation of the crystalline Form IV in film-coated tablets (Example 27 tablets, wet granulation with ethanol, drying, compression, coating to approximately 3% weight increase): absence of any transformation
Structure (SMILES): COc1cc2c(cc1OC)CC(=O)N(CCCN(C)C[C@H]1Cc3cc(OC)c(OC)cc31)CC2 [Form IV of ivabradine hydrochloride, ivabradine hydrochloride]
